Columns and labels:
[1] = test system: hepatic stem cells; assay: Morphology of spheroid cell clusters in high-glucose hepatic stem cell cultures; format: cell-based, rat; conditions: five to seven days in 10 mM nicotinamide, high glucose (23 mM) culture
Protocol: To induce trans-differentiation, the cells were replated and cultured in RPMI 1640 medium supplemented with 10% FCS and 17.5 mM (23 mM final concentration) glucose. After about two months, scattered small spheroid cell clusters began to form on top of the confluent cell monolayer. Individual spheroids from these cell cultures were selected for clonal passage and were subjected several times to the high glucose (23 mM) culturing process described above. The resultant cells reached confluence, and by day 14 formed additional clusters when maintained under the high glucose conditions. […] Multiple clusters also became connected by duct-like structures.

[2] = test system: trans-differentiated hepatic stem cells; assay: Insulin content and secretion by immunoprecipitation and Western blotting; format: cell-based, rat
Protocol: Measurement of insulin content and secretion by immunoprecipitation and Western blotting. Confluent cultures of trans-differentiated hepatic stem cells were maintained in RPMI 1640 plus 10% fetal calf serum in the presence or absence of 10 mM nicotinamide for 7 days. The cells were then switched to serum-free medium containing 0.5% BSA for 5 hrs, washed twice with serum-free medium, then stimulated with an additional 17.5 mM glucose for 2 hrs. The culture medium was collected and stored at −70° C. for assay of secreted insulin. Intracellular insulin was extracted with lysis buffer. The presence of insulin in the culture media and cell lysates was determined by immunoprecipitation with anti-rabbit-insulin polyclonal antibodies (Santa Cruz Biotechnology), followed by separation of the precipitated material by 18% SDS-PAGE, transfer to nylon membrane, and blotting with anti-insulin antibodies as described (Yang, et al., J. Biol. Chem. 269:7156–7162, 1994). Cell lysates (150 μg) or culture media (1 ml) from each culture were used for the immunoprecipitation. Normal rabbit serum was used as primary antibody control, and culture medium containing 0.5% BSA was used as a control for secreted insulin measurements. […] Insulin content in cells and in the media was determined by pooling cell lysates and culture medium from three separate cultures.

For `NC(=O)c1cccnc1` [nicotinamide], the “number and dimension of spheroid cell clusters” value [1] was “markedly increased”, the “increase of insulin in cell lysates versus untreated cells (densitometric analysis)” value ([2]; 10 mM nicotinamide for 7 days before stimulation with additional 17.5 mM glucose for 2 hrs, cell lysates) was 3.4 times and the “levels of insulin detected in cell lysates and secreted into culture medium” value ([2]; growth in nicotinamide before glucose stimulation, Western blot, FIG. 2) was “increased”.

From patent US7029915B2, “Method for differentiating rat hepatic stem cells to insulin-producing cells” (University of Florida Research Foundation, Inc., priority 2002, dated 2006)
